The results in this text go back to patent CN113979875A, “一种地佐辛衍生物晶型a及其制备方法和应用” (Yangtze River Pharmaceutical Group Co Ltd, priority 2020, dated 2022).

Usually IC50 stands for the concentration at which inhibition is half-maximal. The low end stands for greater potency, the high end for weaker potency.

The target in data set [1] is μ opioid receptor (μ阿片类受体) (Homo sapiens, UniProt P35372). Briefly: Radioligand competitive binding, μ opioid receptor (Example 12).
The target of data set [2] is κ opioid receptor (κ阿片类受体) (Homo sapiens, UniProt P41145). The data set can be described thus: Radioligand competitive binding, κ opioid receptor (Example 12).
The target of data set [3] is δ opioid receptor (δ阿片类受体) (Homo sapiens, UniProt P41143). The data set can be described thus: Radioligand competitive binding, δ opioid receptor (Example 12).
The nature of data set [4]: Stress (influencing factor) stability test, crystal form by XRPD (Example 9). It is filed as physicochemical.
Data set [5] can be described thus: Intermediate and long-term storage stability (Example 10). It is filed as physicochemical. The note with it: 12 months.
Data set [6] can be described thus: Grinding test, crystal form by XRPD (Example 7). It counts as physicochemical. The following applies: agate mortar, thorough grinding for half an hour.
Where [7] appears, read: intermediate condition 30℃±2℃/65%±5%RH.
The mark [8] stands for this setting: long-term condition 25℃±2℃/60%±5%RH.

Take `C[C@@]12CCCCC[C@@H](Cc3ccc(O)cc31)[C@@H]2NCc1ccccc1.Cl` [地佐辛衍生物晶型A, 盐酸盐]: the IC50 in data set [1], in data set [2] and in data set [3] was below 10 nM each time.

As for `C[C@@]12CCCCC[C@@H](Cc3ccc(O)cc31)[C@@H]2NCc1ccccc1.Cl` [地佐辛衍生物晶型A], the crystal form result in data set [4] (day 0 (initial)) was “晶型A”; in data set [4] (high humidity, 5 days), “晶型A”; in data set [4] (high humidity, 10 days), “晶型A”; in data set [4] (high humidity, 30 days), “晶型A”; in data set [4] (high temperature and high humidity, 5 days), “晶型A”; in data set [4] (high temperature and high humidity, 10 days), “晶型A”. The crystal form result is reported as “晶型A” in data set [4] (high temperature and high humidity, 30 days); “晶型A” in data set [4] (light, 5 days); “晶型A” in data set [4] (light, 10 days); “晶型A” in data set [4] (light, 30 days). For the same molecule, in data set [4] (high temperature and high humidity, high humidity, and light (Figs. 9-17)), the “crystal transformation (XRPD compared with initial data)” value is “没有发生转晶现象”. Further, in data set [4] (light, high temperature and high humidity, high humidity, packed in medicinal LDPE bag and polyester/aluminium/polyethylene composite film), the “change in all quality indices” value is “各项指标无明显变化,均符合质量标准要求”. The chemical stability result in data set [5] (setting [7]) and in data set [5] (setting [8]) was “很好的化学稳定性” in each case. In addition, the crystal form stability result in data set [5] (setting [7]) and in data set [5] (setting [8]) was “很好的化学稳定性和晶型稳定性” each time. Moreover, in data set [6], the “crystal transformation on grinding” value is given as “未转晶”.
